Data published in patent US9169482B2, “Method for synthesizing cDNA” (TAKARA BIO INC., priority 2010, dated 2015).

Biological target: T1, DNaseI (Bos taurus, UniProt P00639)
T1 construct: purchased TAKARA BIO INC
Assay: Degradation of mouse genomic DNA with DNaseI in reaction solutions of Table 3, agarose gel electrophoresis (Example 2)
Format: biochemical
Settings: 5 U DNaseI, 200 ng mouse genomic DNA
Description: In order to construct a reaction composition completely inhibiting endoDNase activity, six kinds of 20 μL-reaction solutions (Reaction Solutions 1 to 6) containing 5 U DNaseI (TAKARA BIO INC.), 200 ng mouse genomic DNA, and the components as listed in Table 3 were prepared. In addition, six kinds of 20 μL-reaction solutions having the same compositions except that DNaseI was not contained were prepared. These reaction solutions were incubated at 37° C. for 15 minutes, and thereafter incubated at 85° C. for 5 seconds. Next, each of the reaction solutions was subjected to agarose gel electrophoresis, thereby confirming degradation of mouse genomic DNA with DNaseI.
It could be confirmed from this matter that DNaseI activity was inhibited in Reaction Solutions 3 and 4. […] It is shown from this matter that adjustment of the Mg concentration can further inhibit DNaseI activity other than the addition of KCl and (NH4)2SO4 or an increase in the DTT concentration.

T1 sequence (P00639 23-282): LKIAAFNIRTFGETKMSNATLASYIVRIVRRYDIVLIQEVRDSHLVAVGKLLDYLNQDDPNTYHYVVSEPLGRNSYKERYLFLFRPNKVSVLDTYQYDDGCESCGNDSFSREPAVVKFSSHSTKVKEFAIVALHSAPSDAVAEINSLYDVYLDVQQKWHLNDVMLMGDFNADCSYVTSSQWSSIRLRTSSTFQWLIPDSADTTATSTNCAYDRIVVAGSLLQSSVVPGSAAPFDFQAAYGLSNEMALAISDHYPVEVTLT

## N.N.O=S(=O)(O)O [(NH4)2SO4, ammonium sulfate]
  Inhibition of DNaseI activity: inhibited DNaseI activity in a concentration-dependent manner
